Experimental data: ChEMBL document CHEMBL1150701, “A direct bioautographic tlc assay for compounds possessing antibacterial activity” (1987)
Active and inactive are the calls of the source. The rule behind the calls is not given here.

What was measured:
Escherichia coli [1] = experiment: Antibacterial activity against Escherichia coli ATCC 25922 at 5 ug after 48 hrs by silica gel plate-based INT-formazan method; assay type: functional, organism-based
Bacillus subtilis [2] = experiment: Antibacterial activity against Bacillus subtilis ATCC 6633 at 5 ug after 48 hrs by silica gel plate-based INT-formazan method; assay type: functional, organism-based
Escherichia coli [3] = experiment: Antibacterial activity against Escherichia coli ATCC 25922 after 48 hrs by silica gel plate-based INT-formazan method; assay type: functional
Bacillus subtilis [4] = experiment: Antibacterial activity against Bacillus subtilis ATCC 6633 after 48 hrs by silica gel plate-based INT-formazan method; assay type: functional

COc1cc([C@@H]2c3cc4c(c(O)c3C[C@H]3COC(=O)[C@@H]32)OCO4)cc(OC)c1OC
Activity (Escherichia coli [1]): inactive
Activity (Bacillus subtilis [2]): inactive

CC[C@@]1(O)C(=O)OCc2c1cc1n(c2=O)Cc2cc3ccccc3nc2-1
Activity (Escherichia coli [1]): inactive
Activity (Bacillus subtilis [2]): inactive

CC[C@H](CC[C@@H](C)[C@H]1CC[C@H]2[C@@H]3CC=C4C[C@@H](O)CC[C@]4(C)[C@H]3CC[C@]12C)C(C)C [BETA-SITOSTEROL]
MIC (Escherichia coli [3]): >20 µg
MIC (Bacillus subtilis [4]): >20 µg

CC[C@@]1(O)C(=O)OCc2c1cc1n(c2=O)Cc2cc3cc(O)ccc3nc2-1
Activity (Escherichia coli [1]): inactive
Activity (Bacillus subtilis [2]): inactive

O=c1c(O)c(-c2ccc(O)c(O)c2)oc2cc(O)cc(O)c12 [QUERCETIN]
MIC (Escherichia coli [3]): 5 µg
MIC (Bacillus subtilis [4]): 5 µg

CCCCCCCCCCCCCCCC(=O)O [PALMITIC ACID]
MIC (Escherichia coli [3]): >20 µg
MIC (Bacillus subtilis [4]): >20 µg

O=C(N[C@H](CO)[C@H](O)c1ccc([N+](=O)[O-])cc1)C(Cl)Cl [CHLORAMPHENICOL]
MIC (Escherichia coli [3]): 0.02 µg
MIC (Bacillus subtilis [4]): 0.01 µg

COc1cc([C@@H]2c3cc4c(c(O)c3C[C@H]3COC(=O)[C@@H]32)OCO4)cc(OC)c1O
Activity (Escherichia coli [1]): Active
Activity (Bacillus subtilis [2]): Active

CC(=O)O[C@H]1C(=O)O[C@@H]2C[C@H]3C(C)=CC(=O)[C@@H](O)[C@]3(C)[C@H]3[C@]4(O)OC[C@]32[C@@H]1[C@@H](C)[C@H]4O
Activity (Escherichia coli [1]): inactive
Activity (Bacillus subtilis [2]): inactive

COc1cc([C@@H]2c3cc4c(cc3[C@H](O)[C@H]3COC(=O)[C@H]23)OCO4)cc(OC)c1OC
Activity (Escherichia coli [1]): Active
Activity (Bacillus subtilis [2]): Active

OC[C@H]1O[C@@](CO)(O[C@H]2O[C@H](CO)[C@@H](O)[C@H](O)[C@H]2O)[C@@H](O)[C@@H]1O [SUCROSE]
MIC (Escherichia coli [3]): >20 µg
MIC (Bacillus subtilis [4]): >20 µg

COC(=O)[C@]12OC[C@]34[C@H]([C@@H](O)[C@@H]1O)[C@@]1(C)[C@H](O)C(=O)C=C(C)[C@@H]1C[C@H]3OC(=O)[C@H](OC(=O)CC(C)C)[C@@H]24
Activity (Escherichia coli [1]): inactive
Activity (Bacillus subtilis [2]): inactive

CC[C@H](/C=C/[C@@H](C)[C@H]1CC[C@H]2[C@@H]3CC=C4C[C@@H](O)CC[C@]4(C)[C@H]3CC[C@]12C)C(C)C [STIGMASTEROL]
MIC (Escherichia coli [3]): >20 µg
MIC (Bacillus subtilis [4]): >20 µg

CC1(C)S[C@@H]2[C@H](NC(=O)COc3ccccc3)C(=O)N2[C@H]1C(=O)O [PENICILLIN V]
MIC (Escherichia coli [3]): >2 µg
MIC (Bacillus subtilis [4]): 0.005 µg

COc1cc([C@@H]2c3cc4c(cc3C[C@H]3COC(=O)[C@@H]32)OCO4)cc(OC)c1O
Activity (Escherichia coli [1]): inactive
Activity (Bacillus subtilis [2]): inactive

O=C(O)/C=C/c1ccc(O)cc1 [COUMARIC ACID]
MIC (Escherichia coli [3]): 5 µg
MIC (Bacillus subtilis [4]): 2.5 µg

CC[C@@]1(O)C(=O)OCc2c1cc1n(c2=O)Cc2cc3c(OC)cccc3nc2-1
Activity (Escherichia coli [1]): inactive
Activity (Bacillus subtilis [2]): inactive

CC1=CC(=O)[C@@H](O)[C@]2(C)[C@H]3[C@]4(O)OC[C@]35[C@H]([C@@H](C)[C@H]4O)[C@@H](O)C(=O)O[C@@H]5C[C@@H]12
Activity (Escherichia coli [1]): inactive
Activity (Bacillus subtilis [2]): inactive

CC1=CC(=O)[C@@H](O)[C@]2(C)[C@H]3[C@@]4(O)OC[C@@]35[C@@H](C[C@@H]12)OC(=O)C[C@H]5[C@@H](C)[C@H]4O
Activity (Escherichia coli [1]): inactive
Activity (Bacillus subtilis [2]): inactive
